Values joined by “and” are separate entries in the source; they are usually repeats but may differ in a detail not shown here. Equal values may be shown once.
What was measured:
[1] = Pharmacokinetics of DC291407 and metabolites in rats (LC-MS/MS); format: in vivo, Sprague-Dawley (SD) rats
Description: The concentration of metabolite M1 (4071001), metabolite M2 (407002) or metabolite M3 (407003) in plasma was determined by LC-MS/MS method after DC291407 was administrated to the rats through gavage and intravenous injection.
The LC/MS/MS used is triple quadruple LC/MS 6460 from Agilent.
Six healthy male Sprague-Dawley (SD) rats with the weight of 180-220 g were randomly divided into 2 groups. The rats in each group were administrated with the tested compound by gavage or intravenous injection, respectively.
The compound was dissolved in 6.7% DMSO/6.7% Tween/86.6% normal saline.
The rats fasted for 12 h and can drink water ad libitum. 2 h after dosing, the rats were provided with food all together. The time point for collecting blood samples and the sample processing are listed as follows.
Intragastric administration: 0.25, 0.5, 1.0, 2.0, 3.0, 4.0, 6.0, 8.0 and 24 h after administration;
Intravenous administration: 5 min, 0.25, 0.5, 1.0, 2.0, 4.0, 6.0, 8.0 and 24 h after administration. At above time point, 0.3 ml venous blood was taken from retrobulbar venous plexus of the rat and loaded into heparinization tube. After centrifuged at 11000 rpm for 5 min, the plasma was separated and frozen at −20° C. in a refrigerator.

[2] = molecular target: T1, DPP IV (Mus musculus, UniProt P28843); test: DPP IV inhibitory activity in vivo: DPP IV activity in plasma of ICR mouse after single oral dose; conditions: oral 3 mg/kg, compared with Alogliptin and Vildagliptin (LAF237), FIG. 1-6
T1 construct: from tissue; host or cells: plasma of ICR mouse
Description: Animals: ICR mouse (8-10 weeks old; sex: male; 25 g-30 g of body weight, purchased from Shanghai SLAC Laboratory Animal Center).
Meanwhile the solvent group was used as blank control. The blood was taken from orbital venous plexus of the mouse before administration, and 30, 60, 2 h, 4 h, 6 h, 8 h and […] after administration, respectively and loaded into Eppendorf tube (Qizhong Industrial (Shanghai) co., Ltd.) treated by anticoagulant. The plasma was obtained by centrifugation and DPP IV activity was determined.

[3] = intravenous injection 10 mg/kg DC291407, average of 3 animals
[4] = intravenous injection 10 mg/kg DC291407, individual animals, 10 mg/kg
[5] = intravenous injection 10 mg/kg DC291407, time 0.083 h, average of 3 animals
[6] = intravenous injection 10 mg/kg DC291407, time 0.083 h, individual animals, 10 mg/kg
[7] = intravenous injection 10 mg/kg DC291407, time 0.25 h, average of 3 animals
[8] = intravenous injection 10 mg/kg DC291407, time 0.25 h, individual animals, 10 mg/kg
[9] = intravenous injection 10 mg/kg DC291407, time 0.50 h, average of 3 animals
[10] = intravenous injection 10 mg/kg DC291407, time 0.50 h, individual animals, 10 mg/kg
[11] = intravenous injection 10 mg/kg DC291407, time 1.0 h, average of 3 animals
[12] = intravenous injection 10 mg/kg DC291407, time 1.0 h, individual animals, 10 mg/kg
[13] = intravenous injection 10 mg/kg DC291407, time 2.0 h, average of 3 animals
[14] = intravenous injection 10 mg/kg DC291407, time 2.0 h, individual animals, 10 mg/kg
[15] = intravenous injection 10 mg/kg DC291407, time 4.0 h, individual animals, BLQ = below lower quantification
[16] = intravenous injection 10 mg/kg DC291407, time 6.0 h, individual animals, BLQ = below lower quantification
[17] = intravenous injection 10 mg/kg DC291407, time 8.0 h, individual animals, BLQ = below lower quantification
[18] = intravenous injection 10 mg/kg DC291407, time 24 h, individual animals, BLQ = below lower quantification

T1 sequence (P28843 37-760 limits assumed): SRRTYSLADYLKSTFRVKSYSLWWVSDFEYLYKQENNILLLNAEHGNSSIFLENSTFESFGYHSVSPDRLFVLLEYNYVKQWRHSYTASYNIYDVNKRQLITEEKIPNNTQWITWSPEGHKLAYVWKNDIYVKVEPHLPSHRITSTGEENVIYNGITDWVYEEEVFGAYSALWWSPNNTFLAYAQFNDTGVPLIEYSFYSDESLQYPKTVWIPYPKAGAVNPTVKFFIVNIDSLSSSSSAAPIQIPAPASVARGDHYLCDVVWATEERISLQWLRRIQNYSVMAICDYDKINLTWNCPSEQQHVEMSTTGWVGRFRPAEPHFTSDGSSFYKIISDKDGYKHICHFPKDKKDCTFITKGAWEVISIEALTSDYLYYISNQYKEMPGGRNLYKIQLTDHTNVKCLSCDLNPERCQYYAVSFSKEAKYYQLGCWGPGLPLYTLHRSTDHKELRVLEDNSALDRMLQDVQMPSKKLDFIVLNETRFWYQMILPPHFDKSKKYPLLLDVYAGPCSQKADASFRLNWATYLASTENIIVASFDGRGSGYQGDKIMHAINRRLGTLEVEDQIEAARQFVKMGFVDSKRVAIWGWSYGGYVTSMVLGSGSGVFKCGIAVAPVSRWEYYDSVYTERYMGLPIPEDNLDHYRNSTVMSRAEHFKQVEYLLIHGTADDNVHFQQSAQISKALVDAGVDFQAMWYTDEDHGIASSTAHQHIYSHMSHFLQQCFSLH

## COC(=O)c1cc2nc(N3CCCC(N)C3)n(Cc3ccccc3C#N)c(=O)c2s1 (stereo not drawn) [DC291407]
[1]; [3]
  t1/2 of metabolite M1: 12.3 h
  t1/2 of prototype drug: 40.8 min
[1]; intravenous injection 10 mg/kg DC291407, individual animals
  Tmax of metabolite M1: 4.98 min
[1]; [4]
  AUC0-t of metabolite M1: 22692 ng·h/mL and 20658 ng·h/mL and 23472 ng·h/mL
  AUC0-t of prototype drug: 42.4 ng·h/mL and 40.9 ng·h/mL and 24.8 ng·h/mL
  AUC0-∞ of metabolite M1: 23114 ng·h/mL and 20834 ng·h/mL and 23603 ng·h/mL
  AUC0-∞ of prototype drug: 45.9 ng·h/mL and 43.9 ng·h/mL and 29.8 ng·h/mL
  CL of prototype drug: 218 L/h/kg and 228 L/h/kg and 335 L/h/kg
  Cmax of metabolite M1: 39818 ng/mL and 41730 ng/mL and 53535 ng/mL
  MRT of metabolite M1: 1.60 h and 1.01 h and 0.79 h
  MRT of prototype drug: 40.8 min and 40.2 min and 58.8 min
  Vss of prototype drug: 148 L/kg and 154 L/kg and 328 L/kg
  t1/2 of metabolite M1: 19.2 h and 9.18 h and 8.40 h
  t1/2 of prototype drug: 30.6 min and 31.8 min and 60.6 min
[1]; [5]
  Plasma concentration of metabolite M1: 45028 ng/mL
  Plasma concentration of metabolite M2: 117 ng/mL
  Plasma concentration of prototype compound: 59.2 ng/mL
[1]; [6]
  Plasma concentration of metabolite M1: 39818 ng/mL and 41730 ng/mL and 53535 ng/mL
  Plasma concentration of metabolite M2: 126 ng/mL and 209 ng/mL and 15.0 ng/mL
  Plasma concentration of prototype compound: 63.4 ng/mL and 60.7 ng/mL and 53.4 ng/mL
[1]; [7]
  Plasma concentration of metabolite M1: 29232 ng/mL
  Plasma concentration of metabolite M2: 339 ng/mL
  Plasma concentration of prototype compound: 34.8 ng/mL
[1]; [8]
  Plasma concentration of metabolite M1: 28858 ng/mL and 29247 ng/mL and 29592 ng/mL
  Plasma concentration of metabolite M2: 866 ng/mL and 132 ng/mL and 20.3 ng/mL
  Plasma concentration of prototype compound: 49.7 ng/mL and 34.4 ng/mL and 20.3 ng/mL
[1]; [9]
  Plasma concentration of metabolite M1: 9487 ng/mL
  Plasma concentration of metabolite M2: 102 ng/mL
  Plasma concentration of prototype compound: 23.0 ng/mL
[1]; [10]
  Plasma concentration of metabolite M1: 11784 ng/mL and 7251 ng/mL and 9426 ng/mL
  Plasma concentration of metabolite M2: 144 ng/mL and 153 ng/mL and 9.39 ng/mL
  Plasma concentration of prototype compound: 27.4 ng/mL and 31.7 ng/mL and 9.72 ng/mL
[1]; [11]
  Plasma concentration of metabolite M1: 4717 ng/mL
  Plasma concentration of metabolite M2: 23.4 ng/mL
  Plasma concentration of prototype compound: 9.9 ng/mL
[1]; [12]
  Plasma concentration of metabolite M1: 5628 ng/mL and 4634 ng/mL and 3891 ng/mL
  Plasma concentration of metabolite M2: 36.0 ng/mL and 30.9 ng/mL and 3.26 ng/mL
  Plasma concentration of prototype compound: 11.3 ng/mL and 11.9 ng/mL and 6.61 ng/mL
[1]; [13]
  Plasma concentration of metabolite M1: 310 ng/mL
  Plasma concentration of prototype compound: 4.05 ng/mL
[1]; [14]
  Plasma concentration of metabolite M1: 401 ng/mL and 214 ng/mL and 314.7 ng/mL
  Plasma concentration of prototype compound: 4.75 ng/mL and 3.94 ng/mL and 3.44 ng/mL
[1]; intravenous injection 10 mg/kg DC291407, time 2.0 h, individual animals, BLQ = below lower quantification, 10 mg/kg
  Plasma concentration of metabolite M2: BLQ (2×) and 7.18 ng/mL
[1]; intravenous injection 10 mg/kg DC291407, time 4.0 h, average of 3 animals
  Plasma concentration of metabolite M1: 69.7 ng/mL
[1]; intravenous injection 10 mg/kg DC291407, time 4.0 h, individual animals, 10 mg/kg
  Plasma concentration of metabolite M1: 55.4 ng/mL and 68.1 ng/mL and 85.5 ng/mL
[1]; [15]
  Plasma concentration of metabolite M2: BLQ
  Plasma concentration of prototype compound: BLQ
[1]; intravenous injection 10 mg/kg DC291407, time 6.0 h, average of 3 animals
  Plasma concentration of metabolite M1: 40.5 ng/mL
[1]; intravenous injection 10 mg/kg DC291407, time 6.0 h, individual animals, 10 mg/kg
  Plasma concentration of metabolite M1: 30.9 ng/mL and 41.4 ng/mL and 49.3 ng/mL
[1]; [16]
  Plasma concentration of metabolite M2: BLQ
  Plasma concentration of prototype compound: BLQ
[1]; intravenous injection 10 mg/kg DC291407, time 8.0 h, average of 3 animals
  Plasma concentration of metabolite M1: 37.3 ng/mL
[1]; intravenous injection 10 mg/kg DC291407, time 8.0 h, individual animals, 10 mg/kg
  Plasma concentration of metabolite M1: 24.8 ng/mL and 48.5 ng/mL and 38.5 ng/mL
[1]; [17]
  Plasma concentration of metabolite M2: BLQ
  Plasma concentration of prototype compound: BLQ
[1]; intravenous injection 10 mg/kg DC291407, time 24 h, average of 3 animals
  Plasma concentration of metabolite M1: 13.1 ng/mL
[1]; intravenous injection 10 mg/kg DC291407, time 24 h, individual animals, 10 mg/kg
  Plasma concentration of metabolite M1: 15.2 ng/mL and 13.3 ng/mL and 10.8 ng/mL
[1]; [18]
  Plasma concentration of metabolite M2: BLQ
  Plasma concentration of prototype compound: BLQ
[2]
  DPP IV activity of ICR mouse plasma after single dose (given as hypoglycemic ability in vivo): comparable to that of Alogliptin (3 mg), and better than that of Vildagliptin (LAF237, 15 mg)

Source: patent US9045491B2, “Thienyl [3,2-D] pyrimidin-4-one compounds, preparation method, pharmaceutical compositions and use thereof” (SHANGHAI INSTITUTE OF MATERIA MEDICA, CHINESE ACADEMY OF …, priority 2011, dated 2015)
